{"source": "patent US20070207112A1", "about": "“Anti-acne composition” (GRANT INDUSTRIES, INC., priority 2006, published 2007)", "key": {"P. acnes [1]": {"tested_on": "P. acnes", "conditions": "cited from earlier work"}, "P. acnes [2]": {"tested_on": "P. acnes", "assay_type": "cell-based", "conditions": "salicylate 0.08% to 5%", "text": "In-Vitro testing for the synergetic inhibitory effects of Compound A and salicylic acid on the growth of P. acnes.\nThe objective of this experiment was to establish the minimal inhibitory concentration (MIC) of the peptide (Compound A) towards the bacterium P. acnes, in the presence of a range of concentrations of sodium salt of salicylic acid. MIC is defined as the lowest concentration of an active material resulting in lack of microbial growth. P. acnes (BD, cat. #237038, batch #6152097) was inoculated at 3 different dilutions and grown on blood agar plates for one week in anaerobic condition at 37 deg. C. Bacteria were then inoculated in thioglycollate broth in a 96 well plate, at the density equal to 0.5 McFarland standard in the presence of peptide (Compound A) concentrations ranging from 0.25 ug/ml to 32 ug/ml and salicylate concentrations ranging from 0.08% to 5% (checker method). MIC was determined visually and confirmed by spectrophotometry at 490 nm and 590 nm on the BioRad 3550-UV microplate reader."}}, "note": "Residues, ends and D or L forms follow the SMILES beside them."}
{"compound": "CC(C)C[C@H](NC(=O)[C@H](C)NC(=O)[C@H](CCCCN)NC(=O)[C@H](CC(C)C)NC(=O)[C@H](C)NC(=O)[C@H](CCCCN)NC(=O)[C@H](CC(C)C)NC(=O)[C@H](CC(C)C)NC(=O)[C@H](C)NC(=O)[C@H](CCCCN)NC(=O)[C@H](CC(C)C)NC(=O)[C@H](C)NC(=O)[C@H](CCCCN)NC(=O)[C@H](C)NC(=O)[C@@H](N)Cc1ccccc1)C(N)=O", "note": "[Compound A, FAKALKALLKALKAL-NH2] (H-FAKALKALLKALKAL-NH2; N-terminus assumed)", "values": [{"measurement": "MIC against P. acnes (in words)", "setting": "P. acnes [1]; in-vitro, reported in earlier filings", "value": "low in-vitro minimum inhibitory concentration (MIC) against P. acnes"}, {"measurement": "Effect of added sodium salicylate on antimicrobial activity of the peptide", "setting": "P. acnes [2]", "value": "strongly enhance its antimicrobial activity"}]}
{"compound": "O=C(O)c1ccccc1O", "note": "[salicylic acid, reference compound]", "values": [{"measurement": "Antibacterial activity against P. acnes", "setting": "P. acnes [1]; U.S. Pat. No. 4,520,133", "value": "does not posses any antibacterial activity against P. acnes"}]}
